40 compounds from US20090137396A1, “Piperazine Compounds with a Herbicidal Action” (BASF SE, priority 2006, published 2009) can be followed below.

For one series, the system named is Avena fatua (AVEFA). The experiment in a line: greenhouse experiment, pre-emergence treatment, AVEFA. It counts as in vivo. The note with it: pre-emergence method, application rate 1 kg/ha; scale from 0 to 100. The source says:
(§1) The seeds of the test plants were sown separately for each species. For the pre-emergence treatment, the active ingredients, which had been suspended or emulsified in water, were applied directly after sowing by means of finely distributing nozzles. The containers were irrigated gently to promote germination and growth and subsequently covered with transparent plastic hoods until the plants had rooted. This cover causes uniform germination of the test plants, unless this has been impaired by the active ingredients. Depending on the species, the plants were kept at 10-25° C. or 20-35° C. The test period extended over 2 to 4 weeks. During this time, the plants were tended, and their response to the individual treatments was evaluated. Evaluation was carried out using a scale from 0 to 100. 100 means no emergence of the plants, or complete destruction of at least the aerial moieties, and 0 means no damage, or normal course of growth. Good herbicidal activity is given for values of at least 70 and very good herbicidal activity is given for values of at least 85. The plants used in the greenhouse experiments belonged to the following species: [table]
As for `CN1C(=O)C(Cc2ccccc2)N(C)C(=O)C1=Cc1cnccc1I` (stereo not shown) [Example 206], the “herbicidal activity against AVEFA” value is reported as “good (Good herbicidal activity is given for values of at least 70)”.

For a further series, the system named is Amaranthus retroflexus (AMARE). The experiment in a line: greenhouse experiment, pre-emergence treatment, AMARE. It counts as in vivo. The note with it: pre-emergence method, application rate 1 kg/ha; scale from 0 to 100.
From the text: as §1
Regarding `CN1C(=O)C(Cc2ccccc2)N(C(=O)c2ccccc2)C(=O)C1=Cc1ccccc1C#N` (stereo not shown) [Example 137], the “herbicidal activity against AMARE” value is “good (Good herbicidal activity is given for values of at least 70)”.

A further series relates to SETIT. The experiment in a line: greenhouse experiment, pre-emergence treatment, SETIT. Conditions: pre-emergence method, application rate 3 kg/ha; scale from 0 to 100. Format: in vivo.
From the text: as §1
With `CN1C(=O)C(Cc2cccs2)N(C)C(=O)C1=Cc1ccccc1I` (stereo not shown) [Example 214], the “herbicidal activity against SETIT” value is “good (Good herbicidal activity is given for values of at least 70)”.

For a further series, the system named is Abutilon theophrasti (ABUTH). The experiment in a line: greenhouse experiment, pre-emergence treatment, ABUTH. It counts as in vivo. The note with it: pre-emergence method, application rate 3 kg/ha; scale from 0 to 100.
From the text: as §1
For `COC(=O)c1ccccc1C=C1C(=O)N(C)C(Cc2ccccc2)C(=O)N1C` (stereo not shown) [Example 73], the “herbicidal activity against ABUTH” value is “good (Good herbicidal activity is given for values of at least 70)”.

For the next series, the system named is test plants. The experiment in a line: greenhouse experiment, pre-emergence treatment, species not stated. It counts as in vivo. The note with it: pre-emergence method; scale from 0 to 100.
From the text: as §1
Consider `CN1C(=O)C(Cc2ccccc2)N(C)C(=O)C1=Cc1ccccc1-c1ncco1` (single isomer, unassigned) [Example 45], for which the herbicidal activity result is “good to very good”.
Still for that read-out and setting: in the case of `CN1C(=O)C(Cc2ccccc2)N(C)C(=O)C1=Cc1ccccc1-c1ncccn1` (single isomer, unassigned) [Example 100] it was “good to very good”; in that of `CN1C(=O)C(Cc2ccccc2)N(C)C(=O)C1=Cc1ccccc1-c1ncccn1` (single isomer, unassigned) [Example 101], “good to very good”.
As for `CN1C(=O)C(Cc2ccccc2)N(C)C(=O)C1=Cc1ccccc1-c1cnccn1` (single isomer, unassigned) [Example 109], the herbicidal activity result is on record as “good to very good”.
For the compound `CN1C(=O)C(Cc2ccccc2)N(C)C(=O)C1=Cc1ccccc1-c1cnccn1` (single isomer, unassigned) [Example 110], the herbicidal activity result is “good to very good”.
Still for that read-out and setting: then `Cc1cc(-c2ccccc2C=C2C(=O)N(C)C(Cc3ccccc3)C(=O)N2C)on1` (single isomer, unassigned) [Example 147], with “good to very good”; and `Cc1cc(-c2ccccc2C=C2C(=O)N(C)C(Cc3ccccc3)C(=O)N2C)on1` (single isomer, unassigned) [Example 148], with “good to very good”; and `CN1C(=O)C(Cc2ccccc2)N(C)C(=O)C1=Cc1c(F)cccc1I` (stereo not shown) [Example 38], with “good to very good”.
Still for that read-out and setting: in the case of `CN1C(=O)C(Cc2ccccc2)N(C)C(=O)C1=Cc1c(Cl)cccc1I` (stereo not shown) [Example 40] it was “good to very good”; in that of `CN1C(=O)C(Cc2ccccc2)N(C)C(=O)C1=Cc1ccccc1C(F)(F)F` (stereo not shown) [Example 54], “good to very good”; in that of `CN1C(=O)C(Cc2ccccc2)N(C)C(=O)C1=Cc1cc(F)ccc1Br` (stereo not shown) [Example 62], “good to very good”.
Still for that read-out and setting: in the case of `COC(=O)c1ccccc1C=C1C(=O)N(C)C(Cc2ccccc2)C(=O)N1C` (stereo not shown) [Example 73] it was “good to very good”.
On to `CN1C(=O)C(Cc2ccccc2)N(C)C(=O)C1=Cc1c(Br)ccc(F)c1F` (stereo not shown) [Example 119, 3-benzyl-1,4-dimethyl-6-(2-bromo-5,6-difluorobenzylidene)piperazine-2,5-dione], for which the herbicidal activity entry is given as “good to very good”.
Still for that read-out and setting: in the case of `CN1C(=O)C(Cc2ccccc2)N(C)C(=O)C1=Cc1ccccc1-c1cncnc1` (stereo not shown) [Example 124] it was “good to very good”.
The same measure, in the same setting: then `CN1C(=O)C(Cc2ccccc2)N(C(=O)c2ccccc2)C(=O)C1=Cc1ccccc1C#N` (stereo not shown) [Example 137], with “good to very good”; and `CC(=O)N1C(=O)C(=Cc2ccccc2C#N)N(C)C(=O)C1Cc1ccccc1` (stereo not shown) [Example 140], with “good to very good”.
Same read-out and setting: in the case of `CN1C(=O)C(Cc2ccccc2)N(C)C(=O)C1=Cc1ccsc1[N+](=O)[O-]` (stereo not shown) [Example 191] it was “good to very good”.
Consider `CN1C(=O)C(Cc2ccccc2)N(C)C(=O)C1=Cc1ncccc1[N+](=O)[O-]` (stereo not shown) [Example 198], for which the herbicidal activity result is “good to very good”.
As to `CN1C(=O)C(Cc2ccccc2)N(C)C(=O)C1=Cc1cccnc1Br` (stereo not shown) [Example 204], the herbicidal activity entry is “good to very good”.
The same measure, in the same setting: in the case of `CN1C(=O)C(Cc2ccccc2)N(C)C(=O)C1=Cc1cnccc1I` (stereo not shown) [Example 206] it was “good to very good”; in that of `CN1C(=O)C(Cc2cccs2)N(C)C(=O)C1=Cc1ccccc1I` (stereo not shown) [Example 214], “good to very good”.

System in a further series: not given
Experiment: not given
Settings: not given
What is called melting point is the temperature, or range, at which the solid turns liquid. As for `CN1C(=O)C(Cc2ccccc2)N(C)C(=O)C1=Cc1c[nH]c2cccc([N+](=O)[O-])c12` (stereo not shown) [184], the melting point turned out to be 159 °C.
Same read-out and setting: in the case of `CN1C(=O)C(Cc2ccccc2)N(C)C(=O)C1=Cc1c[nH]c2cccc([N+](=O)[O-])c12` (stereo not shown) [185] it was 238 °C; in that of `CN1C(=O)C(Cc2ccccc2)N(C)C(=O)C1=Cc1c(C#N)ccc(F)c1F` (stereo not shown) [Example 115, 3-Benzyl-1,4-dimethyl-6-(2-cyano-5,6-difluorobenzylidene)piperazine-2,5-dione], 175 °C; in that of `CN1C(=O)C(Cc2ccccc2)N(C)C(=O)C1=Cc1ccncc1[N+](=O)[O-]` (stereo not shown) [Example 196], 180 °C.
Take `CN1C(=O)C(Cc2ccccc2)N(C)C(=O)C1=Cc1ccncc1[N+](=O)[O-]` (stereo not shown) [Example 197]: the melting point worked out at 175 °C.
For `CN1C(=O)C(Cc2ccccc2)N(C)C(=O)C1=Cc1ncccc1[N+](=O)[O-]` (stereo not shown) [Example 198], the melting point is 165 °C.
Still for that read-out and setting: in the case of `CN1C(=O)C(Cc2ccccc2)N(C)C(=O)C1=Cc1c[nH]c2cccc(Br)c12` (stereo not shown) [Example 199] it was 236 °C; in that of `CN1C(=O)C(Cc2ccccc2)N(C)C(=O)C1=Cc1cccnc1C#N` (stereo not shown) [Example 205], 218 °C.

A further series concerns test plants. The experiment in a line: greenhouse experiment, post-emergence treatment, species not stated. Format: in vivo. Conditions: post-emergence method; scale from 0 to 100. The source says:
(§2) The seeds of the test plants were sown separately for each species. For the post-emergence treatment, the test plants were first grown to a height of 3 to 15 cm, depending on the plant habit, and only then treated with the active ingredients which had been suspended or emulsified in water. For this purpose, the test plants were either sown directly and grown in the same containers, or they were first grown separately as seedlings and transplanted into the test containers a few days prior to treatment. Depending on the species, the plants were kept at 10-25° C. or 20-35° C. The test period extended over 2 to 4 weeks. During this time, the plants were tended, and their response to the individual treatments was evaluated. Evaluation was carried out using a scale from 0 to 100. 100 means no emergence of the plants, or complete destruction of at least the aerial moieties, and 0 means no damage, or normal course of growth. Good herbicidal activity is given for values of at least 70 and very good herbicidal activity is given for values of at least 85. The plants used in the greenhouse experiments belonged to the following species: [table]
With `Cc1cccc([N+](=O)[O-])c1C=C1C(=O)N(C)C(Cc2ccccc2)C(=O)N1C` (single isomer, unassigned) [Example 13], the herbicidal activity result is recorded as “good to very good”.
Regarding `CN1C(=O)C(Cc2ccccc2)N(C)C(=O)C1=Cc1cc2c(cc1[N+](=O)[O-])OCO2` (single isomer, unassigned) [Example 16], the herbicidal activity result is “good to very good”.
The same measure, in the same setting: then `CN1C(=O)C(Cc2ccccc2)N(C)C(=O)C1=Cc1ccccc1-c1nccs1` (single isomer, unassigned) [Example 44], with “good to very good”; and `CN1C(=O)C(Cc2ccccc2)N(C)C(=O)C1=Cc1ccccc1-c1ccco1` (single isomer, unassigned) [Example 47], with “good to very good”; and `CN1C(=O)C(Cc2ccccc2)N(C)C(=O)C1=Cc1ccccc1-c1ccco1` (single isomer, unassigned) [Example 48], with “good to very good”.
For the compound `Cc1coc(-c2ccccc2C=C2C(=O)N(C)C(Cc3ccccc3)C(=O)N2C)n1` (single isomer, unassigned) [Example 52], the herbicidal activity result is recorded as “good to very good”.
Still for that read-out and setting: then `C=Cc1ccccc1C=C1C(=O)N(C)C(Cc2ccccc2)C(=O)N1C` (single isomer, unassigned) [Example 129], with “good to very good”; and `CN1C(=O)[C@H](Cc2ccccc2)N(C)C(=O)C1=Cc1ccccc1[N+](=O)[O-]` (stereo in doubt) [Example 1, 3-Benzyl-1,4-dimethyl-6-(2-nitrobenzylidene)piperazine-2,5-dione], with “good to very good”.
Same read-out and setting: then `CN1C(=O)C(Cc2ccccc2)N(C)C(=O)C1=Cc1ccccc1-c1cccs1` (stereo not shown) [Example 49], with “good to very good”; and `CN1C(=O)C(Cc2ccccc2)N(C)C(=O)C1=Cc1ccccc1-c1cccnc1` (stereo not shown) [Example 51], with “good to very good”; and `CN1C(=O)C(Cc2ccccc2)N(C)C(=O)C1=C(Br)c1ccccc1C#N` (stereo not shown) [Example 160], with “good to very good”.
Still for that read-out and setting: in the case of `CCN1C(=O)C(Cc2ccccc2)N(CC)C(=O)C1=Cc1ccccc1Br` (stereo not shown) [Example 170] it was “good to very good”.

For another series, the system named is Lulium perenne (LOLMU). The experiment in a line: greenhouse experiment, post-emergence treatment, LOLMU. It counts as in vivo. Conditions: post-emergence method, application rate 1 kg/ha; scale from 0 to 100.
From the text: as §2
With `CN1C(=O)[C@H](Cc2ccccc2)N(C)C(=O)C1=Cc1ccccc1[N+](=O)[O-]` (stereo in doubt) [Example 1, 3-Benzyl-1,4-dimethyl-6-(2-nitrobenzylidene)piperazine-2,5-dione], the “herbicidal activity against LOLMU” value is reported as “very good (very good herbicidal activity is given for values of at least 85)”.
